± gives the uncertainty stated by the source.
Assay: xn = mol fraction of the nth substance listed

CCCCCCCO + CCCC[n+]1ccn(C)c1.O=S(=O)([N-]S(=O)(=O)C(F)(F)F)C(F)(F)F
viscosity (298 K, 100 kPa, x2 = 0): 5.956 ± 0.065 mPa·s
viscosity (298 K, 100 kPa, x2 = 0.7975): 33.43 ± 0.76 mPa·s
viscosity (298 K, 100 kPa, x2 = 0.9013): 40.9 ± 1 mPa·s

CCCC[n+]1ccn(C)c1.N#C[S-] + CCCC[n+]1ccn(C)c1.O=S(=O)([N-]S(=O)(=O)C(F)(F)F)C(F)(F)F
viscosity (283.15 K, 100 kPa, x2 = 0.25): 133.5 ± 7 mPa·s
viscosity (288.15 K, 100 kPa, x2 = 0): 104.5 ± 5.4 mPa·s

CCCO + CCCC[n+]1ccn(C)c1.O=S(=O)([N-]S(=O)(=O)C(F)(F)F)C(F)(F)F
viscosity (298 K, 100 kPa, x2 = 0): 1.929 ± 0.011 mPa·s

ClCCCl + CCCC[n+]1ccn(C)c1.O=S(=O)([N-]S(=O)(=O)C(F)(F)F)C(F)(F)F
electrical conductivity (294.5 K, 100 kPa, x2 = 0.02555): 0.68 ± 0.07 S/m

OCC(F)(F)F + CCCC[n+]1ccn(C)c1.O=S(=O)([N-]S(=O)(=O)C(F)(F)F)C(F)(F)F
viscosity (278.15 K, 101 kPa, x1 = 0.2626): 65.4 ± 1.3 mPa·s
viscosity (278.15 K, 101 kPa, x1 = 0.4753): 30.28 ± 0.61 mPa·s
viscosity (278.15 K, 101 kPa, x1 = 0.6153): 16.99 ± 0.34 mPa·s
viscosity (278.15 K, 101 kPa, x1 = 0.7568): 9.09 ± 0.18 mPa·s
viscosity (293.15 K, 101 kPa, x1 = 0.6153): 10.18 ± 0.21 mPa·s
viscosity (298.15 K, 101 kPa, x1 = 0.2626): 27.45 ± 0.56 mPa·s
viscosity (298.15 K, 101 kPa, x1 = 0.7568): 5.03 ± 0.1 mPa·s
viscosity (313.15 K, 101 kPa, x1 = 0.4753): 9.42 ± 0.19 mPa·s
viscosity (318.15 K, 101 kPa, x1 = 0.4753): 8.31 ± 0.17 mPa·s
viscosity (323.15 K, 101 kPa, x1 = 1): 1.02 ± 0.02 mPa·s
viscosity (333.15 K, 101 kPa, x1 = 0.2626): 9.76 ± 0.2 mPa·s

CCCCCCCO + CCCC[n+]1ccn(C)c1.O=[N+]([O-])[O-]
viscosity (293.15 K, 100 kPa, x2 = 0): 7.03 ± 0.56 mPa·s
viscosity (303.15 K, 100 kPa, x2 = 0): 5.03 ± 0.4 mPa·s
viscosity (313.15 K, 100 kPa, x2 = 0): 3.71 ± 0.3 mPa·s
viscosity (323.15 K, 100 kPa, x2 = 0): 2.79 ± 0.22 mPa·s

CCOS(=O)(=O)[O-].CC[NH+]=C(N(C)C)N(C)C + CCCO
viscosity (293.15 K, 100 kPa, x2 = 0): 670 mPa·s
viscosity (323.15 K, 100 kPa, x2 = 0): 91 ± 19 mPa·s

C[C@H](N)C(=O)[O-].C[N+](C)(C)CCO + CCCO
viscosity (287.96 K, 100 kPa, x1 = 0.0997): 7.8 ± 1.9 mPa·s
viscosity (287.99 K, 100 kPa, x1 = 0.2007): 22.8 ± 5.5 mPa·s
viscosity (288.02 K, 100 kPa, x1 = 0.3915): 119 ± 29 mPa·s
viscosity (288.03 K, 100 kPa, x1 = 0.6939): 910 ± 220 mPa·s
viscosity (288.04 K, 100 kPa, x1 = 0.6047): 540 ± 130 mPa·s
viscosity (288.05 K, 100 kPa, x1 = 0.7915): 1505 ± 380 mPa·s
viscosity (288.06 K, 100 kPa, x1 = 0.506): 267 ± 66 mPa·s
viscosity (288.07 K, 100 kPa, x1 = 0.9049): 2669 ± 680 mPa·s
viscosity (288.08 K, 100 kPa, x1 = 0.2998): 53 ± 13 mPa·s
viscosity (288.1 K, 100 kPa, x1 = 1): 5100 ± 1300 mPa·s
viscosity (289.23 K, 100 kPa, x1 = 0.0997): 7.7 ± 1.8 mPa·s
viscosity (289.24 K, 100 kPa, x1 = 0.2007): 22.2 ± 5.3 mPa·s
viscosity (289.26 K, 100 kPa, x1 = 0.3915): 114 ± 27 mPa·s
viscosity (289.28 K, 100 kPa, x1 = 0.6939): 850 ± 210 mPa·s
viscosity (289.29 K, 100 kPa, x1 = 0.6047): 510 ± 120 mPa·s
viscosity (289.3 K, 100 kPa, x1 = 0.7915): 1387 ± 340 mPa·s
viscosity (289.31 K, 100 kPa, x1 = 0.506): 251 ± 61 mPa·s
viscosity (289.31 K, 100 kPa, x1 = 0.9049): 2464 ± 620 mPa·s
viscosity (289.32 K, 100 kPa, x1 = 0.2998): 51 ± 12 mPa·s
viscosity (289.96 K, 100 kPa, x1 = 1): 3700 ± 1000 mPa·s
viscosity (290.21 K, 100 kPa, x1 = 1): 4300 ± 1200 mPa·s
viscosity (290.49 K, 100 kPa, x1 = 0.0997): 7.5 ± 1.8 mPa·s
viscosity (290.5 K, 100 kPa, x1 = 0.2007): 21.3 ± 5.1 mPa·s
viscosity (290.51 K, 100 kPa, x1 = 0.3915): 107 ± 26 mPa·s
viscosity (290.52 K, 100 kPa, x1 = 0.6047): 470 ± 110 mPa·s
viscosity (290.52 K, 100 kPa, x1 = 0.6939): 770 ± 190 mPa·s
viscosity (290.53 K, 100 kPa, x1 = 0.506): 231 ± 56 mPa·s
viscosity (290.53 K, 100 kPa, x1 = 0.7915): 1251 ± 310 mPa·s
viscosity (290.53 K, 100 kPa, x1 = 0.9049): 2210 ± 560 mPa·s
viscosity (290.54 K, 100 kPa, x1 = 0.2998): 49 ± 12 mPa·s
viscosity (291.71 K, 100 kPa, x1 = 0.0997): 7.2 ± 1.7 mPa·s
viscosity (291.72 K, 100 kPa, x1 = 0.2007): 20.4 ± 4.9 mPa·s
viscosity (291.72 K, 100 kPa, x1 = 0.3915): 99 ± 24 mPa·s
viscosity (291.73 K, 100 kPa, x1 = 0.2998): 46 ± 11 mPa·s
viscosity (291.73 K, 100 kPa, x1 = 0.506): 214 ± 52 mPa·s
viscosity (291.73 K, 100 kPa, x1 = 0.6047): 430 ± 100 mPa·s
viscosity (291.73 K, 100 kPa, x1 = 0.6939): 700 ± 170 mPa·s
viscosity (291.73 K, 100 kPa, x1 = 0.7915): 1121 ± 280 mPa·s
viscosity (291.73 K, 100 kPa, x1 = 0.9049): 1968 ± 490 mPa·s
viscosity (292.02 K, 100 kPa, x1 = 1): 3052 ± 830 mPa·s
viscosity (292.32 K, 100 kPa, x1 = 1): 3520 ± 940 mPa·s
viscosity (292.9 K, 100 kPa, x1 = 0.0997): 6.9 ± 1.7 mPa·s
viscosity (292.91 K, 100 kPa, x1 = 0.2007): 19.6 ± 4.7 mPa·s
viscosity (292.91 K, 100 kPa, x1 = 0.2998): 43 ± 10 mPa·s
viscosity (292.91 K, 100 kPa, x1 = 0.3915): 93 ± 22 mPa·s
viscosity (292.91 K, 100 kPa, x1 = 0.6047): 391 ± 95 mPa·s
viscosity (292.92 K, 100 kPa, x1 = 0.506): 199 ± 48 mPa·s
viscosity (292.92 K, 100 kPa, x1 = 0.6939): 640 ± 160 mPa·s
viscosity (292.92 K, 100 kPa, x1 = 0.7915): 1017 ± 250 mPa·s
viscosity (292.92 K, 100 kPa, x1 = 0.9049): 1771 ± 440 mPa·s
viscosity (294.08 K, 100 kPa, x1 = 1): 2544 ± 670 mPa·s
viscosity (294.09 K, 100 kPa, x1 = 0.0997): 6.7 ± 1.6 mPa·s
viscosity (294.09 K, 100 kPa, x1 = 0.2007): 18.8 ± 4.5 mPa·s
viscosity (294.09 K, 100 kPa, x1 = 0.2998): 41 ± 9.8 mPa·s
viscosity (294.09 K, 100 kPa, x1 = 0.3915): 86 ± 21 mPa·s
viscosity (294.09 K, 100 kPa, x1 = 0.506): 185 ± 45 mPa·s
viscosity (294.09 K, 100 kPa, x1 = 0.6047): 358 ± 87 mPa·s
viscosity (294.09 K, 100 kPa, x1 = 0.9049): 1589 ± 400 mPa·s
viscosity (294.1 K, 100 kPa, x1 = 0.6939): 580 ± 140 mPa·s
viscosity (294.1 K, 100 kPa, x1 = 0.7915): 920 ± 230 mPa·s
viscosity (294.41 K, 100 kPa, x1 = 1): 2896 ± 760 mPa·s
viscosity (295.27 K, 100 kPa, x1 = 0.0997): 6.5 ± 1.6 mPa·s
viscosity (295.27 K, 100 kPa, x1 = 0.2007): 18 ± 4.3 mPa·s
viscosity (295.27 K, 100 kPa, x1 = 0.2998): 38.9 ± 9.4 mPa·s
viscosity (295.27 K, 100 kPa, x1 = 0.3915): 81 ± 20 mPa·s
viscosity (295.27 K, 100 kPa, x1 = 0.506): 172 ± 42 mPa·s
viscosity (295.27 K, 100 kPa, x1 = 0.6047): 329 ± 80 mPa·s
viscosity (295.27 K, 100 kPa, x1 = 0.6939): 530 ± 130 mPa·s
viscosity (295.27 K, 100 kPa, x1 = 0.7915): 840 ± 210 mPa·s
viscosity (295.27 K, 100 kPa, x1 = 0.9049): 1438 ± 360 mPa·s
viscosity (296.14 K, 100 kPa, x1 = 1): 2140 ± 560 mPa·s
viscosity (296.45 K, 100 kPa, x1 = 0.0997): 6.3 ± 1.5 mPa·s
viscosity (296.45 K, 100 kPa, x1 = 0.2007): 17.3 ± 4.2 mPa·s
viscosity (296.45 K, 100 kPa, x1 = 0.2998): 36.9 ± 8.9 mPa·s
viscosity (296.45 K, 100 kPa, x1 = 0.3915): 76 ± 18 mPa·s
viscosity (296.45 K, 100 kPa, x1 = 0.506): 160 ± 39 mPa·s
viscosity (296.45 K, 100 kPa, x1 = 0.6047): 302 ± 73 mPa·s
viscosity (296.45 K, 100 kPa, x1 = 0.6939): 490 ± 120 mPa·s
viscosity (296.45 K, 100 kPa, x1 = 0.7915): 760 ± 190 mPa·s
viscosity (296.45 K, 100 kPa, x1 = 0.9049): 1298 ± 320 mPa·s
viscosity (296.48 K, 100 kPa, x1 = 1): 2402 ± 620 mPa·s
viscosity (297.63 K, 100 kPa, x1 = 0.0997): 6.1 ± 1.5 mPa·s
viscosity (297.63 K, 100 kPa, x1 = 0.2007): 16.6 ± 4 mPa·s
viscosity (297.63 K, 100 kPa, x1 = 0.2998): 35 ± 8.4 mPa·s
viscosity (297.63 K, 100 kPa, x1 = 0.3915): 71 ± 17 mPa·s
viscosity (297.63 K, 100 kPa, x1 = 0.506): 149 ± 36 mPa·s
viscosity (297.63 K, 100 kPa, x1 = 0.6047): 278 ± 67 mPa·s
viscosity (297.63 K, 100 kPa, x1 = 0.6939): 450 ± 110 mPa·s
viscosity (297.63 K, 100 kPa, x1 = 0.7915): 700 ± 170 mPa·s
viscosity (297.63 K, 100 kPa, x1 = 0.9049): 1174 ± 290 mPa·s
viscosity (298.2 K, 100 kPa, x1 = 1): 1806 ± 460 mPa·s
viscosity (298.54 K, 100 kPa, x1 = 1): 2000 ± 510 mPa·s
viscosity (298.8 K, 100 kPa, x1 = 0.0997): 6 ± 1.4 mPa·s
viscosity (298.8 K, 100 kPa, x1 = 0.2007): 16 ± 3.8 mPa·s
viscosity (298.8 K, 100 kPa, x1 = 0.2998): 33.4 ± 8 mPa·s
viscosity (298.8 K, 100 kPa, x1 = 0.3915): 67 ± 16 mPa·s
viscosity (298.8 K, 100 kPa, x1 = 0.6047): 257 ± 62 mPa·s
viscosity (298.81 K, 100 kPa, x1 = 0.506): 140 ± 34 mPa·s
viscosity (298.81 K, 100 kPa, x1 = 0.6939): 410 ± 100 mPa·s
viscosity (298.81 K, 100 kPa, x1 = 0.7915): 640 ± 160 mPa·s
